According to patent US20240270715A1, “INHIBITORS OF TRANSGLUTAMINASES” (ZEDIRA GMBH, priority 2021, published 2024):

Legend:
[1] = biological target: T1, recombinant human transglutaminase 2 (Homo sapiens, UniProt P21980); assay: Transglutaminase assay: incorporation of dansylcadaverine into dimethylcasein (DCC-assay); format: biochemical; conditions: recombinant human TG2 10 nM, dansylcadaverine/dimethylcasein; read-out: IC50 TG2
T1 sequence (P21980 1-687): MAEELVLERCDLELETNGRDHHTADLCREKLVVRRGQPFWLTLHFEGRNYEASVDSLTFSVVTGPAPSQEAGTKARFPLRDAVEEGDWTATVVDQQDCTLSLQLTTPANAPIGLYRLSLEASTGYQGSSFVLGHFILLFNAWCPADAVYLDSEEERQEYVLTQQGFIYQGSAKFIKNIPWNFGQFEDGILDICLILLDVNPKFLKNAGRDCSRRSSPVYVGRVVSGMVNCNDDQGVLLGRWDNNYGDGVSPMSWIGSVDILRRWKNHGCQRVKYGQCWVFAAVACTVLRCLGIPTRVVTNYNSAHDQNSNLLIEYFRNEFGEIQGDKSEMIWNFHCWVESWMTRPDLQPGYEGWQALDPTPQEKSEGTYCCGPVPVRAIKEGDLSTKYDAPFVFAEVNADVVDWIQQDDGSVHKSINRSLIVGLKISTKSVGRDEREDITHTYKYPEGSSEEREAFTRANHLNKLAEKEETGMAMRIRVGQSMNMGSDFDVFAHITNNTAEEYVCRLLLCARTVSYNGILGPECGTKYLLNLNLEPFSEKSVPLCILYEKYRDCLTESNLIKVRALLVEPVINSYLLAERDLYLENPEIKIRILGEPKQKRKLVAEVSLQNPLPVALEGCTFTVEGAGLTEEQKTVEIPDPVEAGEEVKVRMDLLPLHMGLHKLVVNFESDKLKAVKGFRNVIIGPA
Method: To illustrate the advantage of branched alkyl moieties over aromatic moieties, we refer to reference compounds Ref. 2 (ZED1227, U.S. Pat. No. 9,434,763 B2) and Ref. 3 (A8, ZED1047). Inhibition data were determined using the classical fluorescent transamidation assay (dansylcadaverine incorporation into methylated casein, DCC-assay) as described [Büchold, C.; Hils, M.; Gerlach, U.; Weber, J.; Pelzer, C.; Heil, A.; Aeschlimann, D.; Pasternack, R. Features of ZED1227: The First-In-Class Tissue Transglutaminase Inhibitor Undergoing Clinical Evaluation for the Treatment of Celiac Disease. Cells 2022, 11, 1667. https://doi.org/10.3390/cells11101667]. Casein is one of the best known high molecular weight (24 kDa) protein substrates for transglutaminases. Please note, the IC50 value of Ref. 3 (A8) published in U.S. Pat. No. 9,434,763 B2 cannot be compared to the present data, relying on a fluorogenic isopeptidase assay.
To this extent, inhibition data were determined using the classical fluorescent transamidation assay (dansylcadaverine incorporation into methylated casein, DCC-assay) as described in Büchold et al. [Büchold, C.; Hils, M.; Gerlach, U.; Weber, J.; Pelzer, C.; Heil, A.; Aeschlimann, D.; Pasternack, R. Features of ZED1227: The First-In-Class Tissue Transglutaminase Inhibitor Undergoing Clinical Evaluation for the Treatment of Celiac Disease. Cells 2022, 11, 1667. https://doi.org/10.3390/cells11101667]. Casein is one of the best known high molecular weight (24 kDa) protein substrates for transglutaminases. Inhibition data of the inventive compounds was compared with inhibition of compounds disclosed in U.S. Pat. No. 9,434,763 B2, particularly, compound A8, which is denoted herein as Reference 3. It is noteworthy that the IC50 values of compounds A8 published in U.S. Pat. No. 9,434,763 B2 and E16 from U.S. Pat. No. 11,072,634 B2 cannot be compared to the present data, relying on a fluorogenic isopeptidase assay.
For the determination of potency of inhibitors against tissue transglutaminase, the incorporation of dansylcadaverine into dimethylcasein (Zedira product T036, Lorand et al., Anal Biochem, 1971, 44:221-31) was measured using recombinant human transglutaminase 2 (Zedira Product T022).
The tissue transglutaminase is diluted in buffer (50 mM Tris-HCl, 7.5 mM CaCl2, 150 mM NaCl, pH=7.4). The final concentration of TG2 in the assay is 10 nM.
A 10 mM inhibitor stock solution is prepared in DMSO, and from this a serial 1:2-fold dilution series is prepared also in DMSO. Each of the initial dilutions is subsequently diluted 1:50-fold with buffer (50 mM Tris-HCl, 7.5 mM CaCl2, 150 mM NaCl, pH=7.4) to yield the final working dilutions containing 2% (v/v) DMSO. 15 μl of inhibitor working dilution are added per well of a 96 well microtiter plate. As control, 15 μl of a 2% (v/v) DMSO solution prepared using the buffer mentioned above are added per well.
Immediately before starting the assay, 600 μl transglutaminase working solution are added to 11.4 ml assay buffer (50 mM Tris-HCl, 10 mM CaCl2, 10 mM glutathione, 2.5% glycerol, 16.7 μM dansylcadaverine, 4 μM N,N-dimethylcasein, 200 mM NaCl, pH=8.0). 285 μl of this reaction mix are added per well containing the inhibitor.
Increase in fluorescence is measured using λex=330 nm and λemG=500 nm at […] for 30 min. A slope of the increase in fluorescence between 20 and 30 min is calculated for determination of the IC50 value (inhibitor concentration at which 50% of the initial activity is blocked).
Analysis of enzymatic activity is performed by calculation of the slope of an increase in fluorescence intensity. IC50 values are calculated by plotting the enzymatic activity (as percentage from control containing 2% DMSO instead of inhibitor) against the inhibitor concentration. IC50 is defined as the inhibitor concentration blocking 50% of initial enzyme activity.

[2] = Log D by shake flask method (octanol / PBS pH 7.4, HPLC); format: physicochemical; conditions: octanol / PBS pH 7.4, shake flask; read-out: logD
Method: In order to classify the inventive compounds according to their lipophilicity, Log D values (distribution coefficient) were determined by means of the well-established shake flask method, measuring the partition of a compound between an octanol and phosphate-buffered saline (PBS, pH 7.4) by HPLC.
Compounds with a moderate lipophilicity (Log D values from 0 to 3) are usually advantaged for oral absorption, being in balance between solubility and permeability. However, sophisticated formulation of a compound might improve oral bioavailability for highly lipophilic compounds.

[3] = Caco-2 permeability assay (CacoReady kit); format: in vitro ADME; conditions: human
Method: Permeability coefficients (Papp values) were obtained from Caco-2 barrier studies predicting oral/intestinal bioavailability of the tested compounds. The assays were performed by using CacoReady™ ready-to-use kits from ReadyCell according to the manufacturers protocol.

CCNC(=O)C(=O)CC[C@H](NC(=O)c1snnc1C1CC1)C(=O)Nc1cccn(CC23CC4CC(CC(O)(C4)C2)C3)c1=O [Compound I-82, (S)-N1-(1-((3-hydroxy-1-adamantyl)methyl)-2-oxo-1,2-dihydropyridin-3-yl)-2-(4-cyclopropyl-1,2,3-thiadiazole-5-carboxamido)-N6-ethyl-5-oxohexanediamide]
IC50 [1]: 150 to 600 nM
logD [2]: < 1
Papp [3]: < 1 ×10⁻⁶ cm/s

CCNC(=O)C(=O)CC[C@H](NC(=O)c1oc2ccccc2c1C)C(=O)Nc1cccn(CC(=O)N[C@H]2C[C@H]3CC[C@]2(C)C3(C)C)c1=O [Compound I-69, (S)-N1-ethyl-5-(3-methylbenzofuran-2-carboxamido)-2-oxo-N6-(2-oxo-1-(2-oxo-2-((1R,2S,4R)-1,7,7-trimethylbicyclo[2.2.1]heptan-2-ylamino)ethyl)-1,2-dihydropyridin-3-yl)hexanediamide]
IC50 [1]: 150 to 600 nM
logD [2]: 3 to 5
Papp [3]: 1 to 10 ×10⁻⁶ cm/s

CCNC(=O)C(=O)CC[C@H](NC(=O)c1cnnn1C)C(=O)Nc1cccn(CC(=O)NC2C3CC4CC(C3)CC2C4)c1=O (stereo partly drawn) [Compound I-56, (S)-N1-ethyl-N6-(1-(2-(2-adamantylamino)-2-oxoethyl)-2-oxo-1,2-dihydropyridin-3-yl)-5-(1-methyl-1H-1,2,3-triazole-5-carboxamido)-2-oxohexanediamide]
IC50 [1]: < 150 nM
logD [2]: < 1
Papp [3]: 1 to 10 ×10⁻⁶ cm/s

CCNC(=O)C(=O)CC[C@H](NC(=O)c1nonc1N)C(=O)Nc1cccn(CC(=O)NC23CC(C2)C3)c1=O [Compound I-108, (S)-2-(4-amino-1,2,5-oxadiazole-3-carboxamido)-N1-(1-(2-(bicyclo[1.1.1]pentan-1-ylamino)-2-oxoethyl)-2-oxo-1,2-dihydropyridin-3-yl)-N6-ethyl-5-oxohexanediamide]
IC50 [1]: 600 to 3500 nM
logD [2]: < 1
Papp [3]: < 1 ×10⁻⁶ cm/s

CCNC(=O)C(=O)CC[C@H](NC(=O)c1cc2cccc(F)c2s1)C(=O)Nc1cccn(CC(=O)NC2C3CC4CC(C3)CC2C4)c1=O (stereo partly drawn) [Compound I-35, (S)-N1-ethyl-5-(7-fluorobenzo[b]thiophene-2-carboxamido)-N6-(1-(2-(2-adamantylamino)-2-oxoethyl)-2-oxo-1,2-dihydropyridin-3-yl)-2-oxohexanediamide]
IC50 [1]: < 150 nM
logD [2]: 3 to 5
Papp [3]: 1 to 10 ×10⁻⁶ cm/s

CCNC(=O)C(=O)CC[C@H](NC(=O)c1cn(C)cn1)C(=O)Nc1cccn(CC(=O)NC23CC4CC(CC(CC)(C4)C2)C3)c1=O [Compound I-15, (S)-N1-ethyl-N6-(1-(2-(3-ethyladamantane-1-amino)-2-oxoethyl)-2-oxo-1,2-dihydropyridin-3-yl)-5-(1-methyl-1H-imidazole-4-carboxamido)-2-oxohexanediamide]
IC50 [1]: 600 to 3500 nM
logD [2]: 1 to 3
Papp [3]: < 1 ×10⁻⁶ cm/s

CCNC(=O)C(=O)CC[C@H](NC(=O)c1cncn1C)C(=O)Nc1cccn(CC(=O)NC23CC4CC(CC(Cl)(C4)C2)C3)c1=O [Compound I-9, (S)-N1-ethyl-N6-(1-(2-(3-chloroadamantane-1-amino)-2-oxoethyl)-2-oxo-1,2-dihydropyridin-3-yl)-5-(1-methyl-1H-imidazole-5-carboxamido)-2-oxohexanediamide]
IC50 [1]: 150 to 600 nM
logD [2]: < 1
Papp [3]: < 1 ×10⁻⁶ cm/s

CCNC(=O)C(=O)CC[C@H](NC(=O)c1nc2ccccc2[nH]1)C(=O)Nc1cccn(CC(=O)NC2C3CC4CC(C3)CC2C4)c1=O (stereo partly drawn) [Compound I-38, (S)-2-(1H-benzo[d]imidazole-2-carboxamido)-N6-ethyl-N1-(1-(2-(2-adamantylamino)-2-oxoethyl)-2-oxo-1,2-dihydropyridin-3-yl)-5-oxohexanediamide]
IC50 [1]: < 150 nM
logD [2]: 3 to 5
Papp [3]: < 1 ×10⁻⁶ cm/s

CCNC(=O)C(=O)CC[C@H](NC(=O)c1cncnc1C)C(=O)Nc1cccn(CC(=O)NC2C3CC4CC2CC(C(=O)O)(C4)C3)c1=O (stereo partly drawn) [Compound I-92, (S)-N1-ethyl-N6-(1-(2-(5-carboxy-2-aminoadamantane)-2-oxoethyl)-2-oxo-1,2-dihydropyridin-3-yl)-5-(4-methylpyrimidine-5-carboxamido)-2-oxohexanediamide]
IC50 [1]: 150 to 600 nM
logD [2]: < 1
Papp [3]: < 1 ×10⁻⁶ cm/s
